SMILES strings stand for the structures.

This series in a line: Assay for determination of apparent permeability (Papp), bi-directional transport. The following applies: pig, LLC-PK1.
What is called Papp is the rate of passage across a membrane or cell layer, normalised by area and donor concentration. For `COc1ccc(CO[C@@H](C)[C@H]2O[C@@H]3SC(N(C)C)=N[C@@H]3[C@@H](O)[C@@H]2O)cc1` [Example 109, (3aR,5S,6S,7R,7aR)-2-(dimethylamino)-5-((S)-1-(4-methoxybenzyloxy)ethyl)-5,6,7,7a-tetrahydro-3aH-pyrano[3,2-d]thiazole-6,7-diol], the Papp at 3 h, 1 μM was found to be 26.3 ×10⁻⁶ cm/s. As for `CCCO[C@H]([C@H]1O[C@@H]2SC(N(C)C)=N[C@@H]2[C@@H](O)[C@@H]1O)C(F)(F)F` [Example 25, (3aR,5S,6S,7R,7aR)-2-(dimethylamino)-5-((R)-2,2,2-trifluoro-1-propoxyethyl)-5,6,7,7a-tetrahydro-3aH-pyrano[3,2-d]thiazole-6,7-diol], the apparent permeability (Papp) at 3 h, 1 μM was 29.5 ×10⁻⁶ cm/s. Consider `CCO[C@H]([C@H]1O[C@@H]2SC(N(C)C)=N[C@@H]2[C@@H](O)[C@@H]1O)C(F)(F)F` [Example 23, (3aR,5S,6S,7R,7aR)-2-(dimethylamino)-5-((R)-1-ethoxy-2,2,2-trifluoroethyl)-5,6,7,7a-tetrahydro-3aH-pyrano[3,2-d]thiazole-6,7-diol], for which the apparent permeability coefficient (Papp) at 3 h, 1 μM came to 23.6 ×10⁻⁶ cm/s.

Consider `COc1ccc(CO[C@@H]([C@H]2O[C@@H]3SC(N(C)C)=N[C@@H]3[C@@H](O)[C@@H]2O)C(F)(F)F)cc1` [Example 53, (3aR,5S,6S,7R,7aR)-2-(dimethylamino)-5-((R)-2,2,2-trifluoro-1-(4-mcthoxybenzyloxy)ethyl)-5,6,7,7a-tetrahydro-3aH-pyrano[3,2-d]thiazole-6,7-diol], for which the Papp at 3 h, 1 μM was 33 ×10⁻⁶ cm/s. With `CCN(C)C1=N[C@@H]2[C@@H](O)[C@H](O)[C@@H]([C@@H](OC)C(F)(F)F)O[C@@H]2S1` [Example 73, (3aR,5S,6S,7R,7aR)-2-(ethyl(methyl)amino)-5-((R)-2,2,2-trifluoro-1-methoxyethyl)-5,6,7,7a-tetrahydro-3aH-pyrano[3,2-d]thiazole-6,7-diol], the Papp at 3 h, 1 μM worked out at 19.9 ×10⁻⁶ cm/s. In the case of `CCO[C@@H]([C@H]1O[C@@H]2SC(N(C)C)=N[C@@H]2[C@@H](O)[C@@H]1O)C(F)(F)F` [Example 22, (3aR,5S,6S,7R,7aR)-2-(dimethylamino)-5-((S)-1-ethoxy-2,2,2-trifluoroethyl)-5,6,7,7a-tetrahydro-3aH-pyrano[3,2-d]thiazole-6,7-diol] it was 27.2 ×10⁻⁶ cm/s; in that of `CO[C@@](C)([C@H]1O[C@@H]2SC(N(C)C)=N[C@@H]2[C@@H](O)[C@@H]1O)C(F)(F)F` (single isomer, unassigned) [Example 74], 24.5 ×10⁻⁶ cm/s; in that of `CCCCCO[C@H]([C@H]1O[C@@H]2SC(N(C)C)=N[C@@H]2[C@@H](O)[C@@H]1O)C(F)(F)F` [Example 27, (3aR,5S,6S,7R,7aR)-2-(dimethylamino)-5-((R)-2,2,2-trifluoro-1-(pentyloxy)ethyl)-5,6,7,7a-tetrahydro-3aH-pyrano[3,2-d]thiazole-6,7-diol], 32 ×10⁻⁶ cm/s. The value for `COc1ccccc1CO[C@H]([C@H]1O[C@@H]2SC(N(C)C)=N[C@@H]2[C@@H](O)[C@@H]1O)C(F)(F)F` [Example 50, (3aR,5S,6S,7R,7aR)-2-(dimethylamino)-5-((R)-2,2,2-trifluoro-1-(2-methoxybenzyloxy)ethyl)-5,6,7,7a-tetrahydro-3aH-pyrano[3,2-d]thiazole-6,7-diol] was 31.5 ×10⁻⁶ cm/s; that for `CN(C)C1=N[C@@H]2[C@@H](O)[C@H](O)[C@@H]([C@@H](OCc3ccc(CF)cc3)C(F)(F)F)O[C@@H]2S1` [Example 69, (3aR,5S,6S,7R,7aR)-2-(dimethylamino)-5-((R)-2,2,2-trifluoro-1-(4-(fluoromethyl)benzyloxy)ethyl)-5,6,7,7a-tetrahydro-3aH-pyrano[3,2-d]thiazole-6,7-diol] was 31.1 ×10⁻⁶ cm/s; that for `Cc1ccc(CO[C@H]([C@H]2O[C@@H]3SC(N(C)C)=N[C@@H]3[C@@H](O)[C@@H]2O)C(F)(F)F)cc1` [Example 40, (3aR,5S,6S,7R,7aR)-2-(dimethylamino)-5-((R)-2,2,2-trifluoro-1-(4-methylbenzyloxy)ethy1)-5,6,7,7a-tetrahydro-3aH-pyrano[3,2-d]thiazole-6,7-diol] was 31.2 ×10⁻⁶ cm/s. Turning to `CN(C)C1=N[C@@H]2[C@@H](O)[C@H](O)[C@@H]([C@@H](Oc3ccccc3)C(F)(F)F)O[C@@H]2S1` [Example 107, (3aR,5S,6S,7R,7aR)-2-(dimethylamino)-5-((R)-2,2,2-trifluoro-1-phenoxyethyl)-5,6,7,7a-tetrahydro-3aH-pyrano[3,2-d]thiazole-6,7-diol], the Papp at 3 h, 1 μM turned out to be 31.3 ×10⁻⁶ cm/s. Turning to `CN(C)C1=N[C@@H]2[C@@H](O)[C@H](O)[C@@H]([C@@H](OCCCF)C(F)(F)F)O[C@@H]2S1` [Example 29, (3aR,5S,6S,7R,7aR)-2-(dimethylamino)-5-((R)-2,2,2-trifluoro-1-(3-fluoropropoxy)ethyl)-5,6,7,7a-tetrahydro-3aH-pyrano[3,2-d]thiazole-6,7-diol], the Papp at 3 h, 1 μM turned out to be 20.9 ×10⁻⁶ cm/s. In the case of `CN(C)C1=N[C@@H]2[C@@H](O)[C@H](O)[C@@H]([C@@H](OCC3CCCCC3)C(F)(F)F)O[C@@H]2S1` [Example 35, (3aR,5S,6S,7R,7aR)-5-((R)-1-(cyclohexylmethoxy)-2,2,2-trifluoroethyl)-2-(dimethylamino)-5,6,7,7a-tetrahydro-3aH-pyrano[3,2-d]thiazole-6,7-diol] it was 33.6 ×10⁻⁶ cm/s; in that of `CCN(C)C1=N[C@@H]2[C@@H](O)[C@H](O)[C@@H]([C@H](OC)C(F)(F)F)O[C@@H]2S1` [Example 72, (3aR,5S,6S,7R,7aR)-2-(ethyl(methyl)amino)-5-((S)-2,2,2-trifluoro-1-methoxyethyl)-5,6,7,7a-tetrahydro-3aH-pyrano[3,2-d]thiazole-6,7-diol], 25.4 ×10⁻⁶ cm/s; in that of `C=CCOc1ccc(CO[C@H]([C@H]2O[C@@H]3SC(N(C)C)=N[C@@H]3[C@@H](O)[C@@H]2O)C(F)(F)F)cc1` [Example 20, (3aR,5S,6S,7R,7aR)-5-((R)-1-(4-(allyloxy)benzyloxy)-2,2,2-trifluoroethyl)-2-(dimethylamino)-5,6,7,7a-tetrahydro-3aH-pyrano[3,2-d]thiazole-6,7-diol], 29.8 ×10⁻⁶ cm/s.

Take `CCc1cc(CO[C@H]([C@H]2O[C@@H]3SC(N(C)C)=N[C@@H]3[C@@H](O)[C@@H]2O)C(F)(F)F)ccc1OC` [Example 59, (3aR,5S,6S,7R,7aR)-2-(dimethylamino)-5-((R)-1-(3-ethyl-4-methoxybenzyloxy)-2,2,2-trifluoroethyl)-5,6,7,7a-tetrahydro-3aH-pyrano[3,2-d]thiazole-6,7-diol]: the Papp at 3 h, 1 μM turned out to be 29.6 ×10⁻⁶ cm/s. As for `CN(C)C1=N[C@@H]2[C@@H](O)[C@H](O)[C@@H]([C@@H](OCc3cccc(F)c3F)C(F)(F)F)O[C@@H]2S1` [Example 46, (3aR,5S,6S,7R,7aR)-5-((R)-1-(2,3-difluorobenzyloxy)-2,2,2-trifluoroethyl)-2-(dimethylamino)-5,6,7,7a-tetrahydro-3aH-pyrano[3,2-d]thiazole-6,7-diol], the Papp at 3 h, 1 μM was 34.5 ×10⁻⁶ cm/s. With `CNC1=N[C@@H]2[C@@H](O)[C@H](O)[C@@H]([C@@H](Oc3ccccc3)C(F)(F)F)O[C@@H]2S1` [Example 4, (3aR,5S,6S,7R,7aR)-2-(methylamino)-5-((R)-2,2,2-trifluoro-1-phenoxyethyl)-5,6,7,7a-tetrahydro-3aH-pyrano[3,2-d]thiazole-6,7-diol], the Papp at 3 h, 1 μM was determined as 27.3 ×10⁻⁶ cm/s.

(Values after US9611275B2 (priority 2012, dated 2017).)
